We go through 13 compounds from PubChem BioAssay (NCI).

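Tested at 5 concentrations; 48 h exposure; 96-well plates; endpoints linearly interpolated, else capped at highest concentration. GI50 is the concentration that inhibits growth by half. At the TGI there is no net growth.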

Among the test systems are SF-539 CNS; HL-60(TB) leukemia; SR leukemia; 786-0 renal; HOP-92 NSCLC; SK-OV-3 ovarian; OVCAR-4 ovarian; CAKI-1 renal; KM12 colon; LOX IMVI melanoma.
Holding throughout (assay): growth of human tumour cells (NCI), 48 h

As for `CN1CCN(c2ccc(Nc3nc(N)c(C(=O)c4ccc5c(c4)OCCO5)s3)cc2)CC1`, the GI50 in the assay with SF-539 CNS is 4.25 µM; in the assay on HL-60(TB) leukemia, 4.62 µM; in the assay on SR leukemia it was 2.02 µM; in the assay on 786-0 renal, 3.44 µM; in the assay on HOP-92 NSCLC, 0.204 µM; in the assay on SK-OV-3 ovarian it was 4.36 µM. Moreover, the GI50 in the assay with OVCAR-4 ovarian is 4.02 µM; in the assay on CAKI-1 renal it was 1.18 µM; in the assay with KM12 colon, 4.06 µM; in the assay on LOX IMVI melanoma, 3.2 µM. Moreover, the TGI with SF-539 CNS came to 8.33 µM; in the assay on HL-60(TB) leukemia, 11.6 µM; in the assay on SR leukemia, 12.7 µM; in the assay on 786-0 renal it was 8.23 µM; with HOP-92 NSCLC, 3.5 µM; in the assay on SK-OV-3 ovarian, 10.6 µM. The TGI with OVCAR-4 ovarian came out at 10.5 µM; with CAKI-1 renal, 7 µM; in the assay on KM12 colon it was 16.1 µM; in the assay with LOX IMVI melanoma, 7.21 µM.
Turning to `COC(=O)CCC(=O)Nc1cc(Cl)ccc1Cl`, the TGI with SF-539 CNS, in the assay with HL-60(TB) leukemia, with SR leukemia, in the assay on 786-0 renal, in the assay with HOP-92 NSCLC and in the assay on SK-OV-3 ovarian was more than 100 µM each time. In addition, the TGI with OVCAR-4 ovarian, in the assay with CAKI-1 renal, in the assay with KM12 colon and in the assay with LOX IMVI melanoma was more than 100 µM throughout.
As for `CN(C)C/C=C/C(=O)Nc1cc2c(Nc3ccc(F)c(Cl)c3F)ncnc2cc1OCCOC(F)F`, the GI50 with SF-539 CNS is 0.999 µM; in the assay on HL-60(TB) leukemia, 1.74 µM; with SR leukemia, 0.496 µM; in the assay with 786-0 renal, 0.348 µM; in the assay with HOP-92 NSCLC it was 0.0585 µM; in the assay on SK-OV-3 ovarian, less than 0.01 µM. The GI50 in the assay with OVCAR-4 ovarian is 1.18 µM; in the assay with CAKI-1 renal it was less than 0.01 µM; in the assay with KM12 colon, 2.04 µM; with LOX IMVI melanoma, 0.958 µM. Also, the TGI in the assay on SF-539 CNS was determined as 3.02 µM; with HL-60(TB) leukemia it was 6.96 µM; in the assay with SR leukemia it was 4.83 µM; in the assay with 786-0 renal, 3.56 µM; in the assay with HOP-92 NSCLC it was 1.13 µM; in the assay with OVCAR-4 ovarian it was 10.7 µM. For the same compound, the TGI was 1.13 µM in the assay on CAKI-1 renal, 8.23 µM in the assay on KM12 colon and 2.25 µM with LOX IMVI melanoma.
As to `O=C(O)/C(Cl)=C(\Cl)C(=O)NC1C2CC3CC(C2)CC1C3` (centres undefined), the TGI in the assay with SF-539 CNS, with HL-60(TB) leukemia, with SR leukemia, in the assay with 786-0 renal, in the assay with HOP-92 NSCLC and with SK-OV-3 ovarian was more than 100 µM in each case. Further, the TGI in the assay with OVCAR-4 ovarian was more than 100 µM; in the assay on CAKI-1 renal it was more than 100 µM; in the assay with KM12 colon, 96.2 µM; in the assay with LOX IMVI melanoma, more than 100 µM.
As to `COc1ccc(C(=O)C(c2ccc(OC)cc2)C2OC(=O)C(Cl)=C2Cl)cc1` (centres undefined), the TGI with SF-539 CNS, in the assay with HL-60(TB) leukemia, in the assay on SR leukemia, with 786-0 renal, in the assay with HOP-92 NSCLC and in the assay with SK-OV-3 ovarian was more than 100 µM throughout. Besides, the TGI in the assay with OVCAR-4 ovarian, with CAKI-1 renal, in the assay with KM12 colon and in the assay with LOX IMVI melanoma was more than 100 µM each time.
Turning to `COc1ccc(NC(=O)CC/C(CC(=O)C(C)(C)C)=N\NC(=O)C(N)=O)cc1`, the TGI in the assay on SF-539 CNS, with HL-60(TB) leukemia, in the assay on SR leukemia, in the assay with 786-0 renal, in the assay with HOP-92 NSCLC and with SK-OV-3 ovarian was more than 100 µM each time. The TGI in the assay on OVCAR-4 ovarian, in the assay on CAKI-1 renal, in the assay on KM12 colon and with LOX IMVI melanoma was more than 100 µM each time.
Consider `CN(CC#N)C1CCCC[C@H]1O` (some centres undefined), for which the TGI in the assay on SF-539 CNS, with HL-60(TB) leukemia, with SR leukemia, with 786-0 renal, in the assay on HOP-92 NSCLC and in the assay with SK-OV-3 ovarian was more than 100 µM each time. For the same compound, the TGI in the assay with OVCAR-4 ovarian, in the assay with CAKI-1 renal, in the assay on KM12 colon and in the assay with LOX IMVI melanoma was more than 100 µM each time.
Turning to `CN1C(=O)[C@@H](NC(=O)[C@H](CCC(F)(F)F)[C@H](CCC(F)(F)F)C(N)=O)N=C(c2ccccc2)c2ccccc21`, the GI50 is 50.3 µM in the assay with SF-539 CNS; 62.6 µM in the assay with HL-60(TB) leukemia; 28.4 µM with SR leukemia; more than 100 µM in the assay on 786-0 renal; 59.1 µM with HOP-92 NSCLC; more than 100 µM in the assay with SK-OV-3 ovarian. Besides, the GI50 in the assay on OVCAR-4 ovarian is 86.8 µM; in the assay on CAKI-1 renal, more than 100 µM; with KM12 colon, more than 100 µM; with LOX IMVI melanoma it was more than 100 µM. For the same compound, the TGI in the assay with SF-539 CNS, with HL-60(TB) leukemia, in the assay on SR leukemia, in the assay on 786-0 renal, in the assay on HOP-92 NSCLC and in the assay on SK-OV-3 ovarian was more than 100 µM each time. The TGI with OVCAR-4 ovarian, in the assay on CAKI-1 renal, in the assay on KM12 colon and with LOX IMVI melanoma was more than 100 µM each time.
For `O=C(Nc1ccccc1O)c1ccc(CNc2ccnc(C(F)(F)F)c2)cc1`, the GI50 is 1.89 µM in the assay on SF-539 CNS; 1.85 µM in the assay with HL-60(TB) leukemia; 2 µM with SR leukemia; 3.36 µM with 786-0 renal; 0.699 µM in the assay on HOP-92 NSCLC; 5.41 µM in the assay on SK-OV-3 ovarian. For the same compound, the GI50 was 17.2 µM with OVCAR-4 ovarian, 1.74 µM in the assay with CAKI-1 renal, 7.01 µM in the assay with KM12 colon and 2.8 µM with LOX IMVI melanoma. In addition, the TGI was 23.1 µM with SF-539 CNS; 8.03 µM in the assay with HL-60(TB) leukemia; more than 100 µM in the assay with SR leukemia; 13.6 µM in the assay on 786-0 renal; 15.4 µM in the assay with HOP-92 NSCLC; 41.7 µM in the assay with SK-OV-3 ovarian. For the same compound, the TGI in the assay with OVCAR-4 ovarian was more than 100 µM; in the assay with CAKI-1 renal, 14.3 µM; with KM12 colon it was 23.3 µM; with LOX IMVI melanoma it was 46 µM.
As for `CCn1cc(-c2ccnc3[nH]ccc23)c(-c2cccc(NC(=O)Nc3ccc(OCc4ccccc4)cc3)c2)n1`, the GI50 with SF-539 CNS was 12.9 µM; in the assay with HL-60(TB) leukemia it was 4.23 µM; with SR leukemia, 7.25 µM; with 786-0 renal, 6.82 µM; with HOP-92 NSCLC, more than 25 µM; in the assay on SK-OV-3 ovarian, more than 22.4 µM. Also, the GI50 in the assay on OVCAR-4 ovarian is more than 23.4 µM; in the assay with CAKI-1 renal it was 6.71 µM; in the assay with KM12 colon, 7.44 µM; in the assay on LOX IMVI melanoma, 6.01 µM. The TGI with SF-539 CNS is more than 25 µM; with HL-60(TB) leukemia it was 17.2 µM; in the assay with SR leukemia, more than 25 µM; in the assay on 786-0 renal it was more than 25 µM; in the assay with HOP-92 NSCLC, more than 25 µM; in the assay on SK-OV-3 ovarian, more than 25 µM. The TGI in the assay on OVCAR-4 ovarian, with CAKI-1 renal, in the assay with KM12 colon and in the assay on LOX IMVI melanoma was more than 25 µM in each case.
In the case of `COc1ccc(/C=C2\CC(C)CC3C2=NN(C(C)=O)C3c2ccc(OC)cc2)cc1` (centres undefined), the GI50 is 19 µM in the assay with SF-539 CNS; 13.7 µM with HL-60(TB) leukemia; 20.4 µM in the assay with SR leukemia; 18.8 µM in the assay on 786-0 renal; 17.2 µM in the assay on HOP-92 NSCLC; 28.7 µM with SK-OV-3 ovarian. Moreover, the GI50 in the assay with OVCAR-4 ovarian is 12.2 µM; in the assay with CAKI-1 renal, 30.5 µM; with KM12 colon, 16.9 µM; with LOX IMVI melanoma, 17.6 µM. Besides, the TGI in the assay on SF-539 CNS is 38.1 µM; with HL-60(TB) leukemia, 61 µM; in the assay on SR leukemia it was 50.5 µM; in the assay with 786-0 renal, 37.7 µM; with HOP-92 NSCLC it was 44.2 µM; in the assay with SK-OV-3 ovarian it was more than 100 µM. For the same compound, the TGI in the assay with OVCAR-4 ovarian was 36.5 µM; with CAKI-1 renal, more than 100 µM; in the assay on KM12 colon, 46.5 µM; in the assay on LOX IMVI melanoma it was 38.3 µM.
On to `Fc1ccc(-c2ncn(C3CCNCC3)c2-c2ccnc(Oc3ccc(F)c(F)c3)n2)cc1`, for which the GI50 in the assay on SF-539 CNS was 4.94 µM; in the assay on HL-60(TB) leukemia it was 10.6 µM; with SR leukemia, 6.23 µM; with 786-0 renal it was 8.97 µM; with HOP-92 NSCLC, 3.28 µM; with SK-OV-3 ovarian it was 7.54 µM. For the same compound, the GI50 with OVCAR-4 ovarian was 5.91 µM; in the assay with CAKI-1 renal it was 10.6 µM; in the assay with KM12 colon, 6.71 µM; in the assay with LOX IMVI melanoma it was 4.29 µM. Also, the TGI in the assay on SF-539 CNS is 9.8 µM; in the assay on HL-60(TB) leukemia, 24.6 µM; in the assay with SR leukemia it was 13.4 µM; with 786-0 renal, more than 16.2 µM; in the assay with HOP-92 NSCLC, 15.6 µM; in the assay with SK-OV-3 ovarian, more than 16.4 µM. The TGI in the assay on OVCAR-4 ovarian was 18.3 µM; with CAKI-1 renal, more than 20.6 µM; in the assay with KM12 colon, more than 16.2 µM; in the assay on LOX IMVI melanoma, 9.14 µM.
Take `Cc1cc(Nc2c3ccccc3nc3ccccc23)ccc1NS(C)(=O)=O`: the GI50 in the assay on SF-539 CNS is 3.74 µM; in the assay with HL-60(TB) leukemia it was 3.67 µM; in the assay on SR leukemia, 2.11 µM; in the assay with 786-0 renal, 4.73 µM; with HOP-92 NSCLC, 0.758 µM; with SK-OV-3 ovarian, 6.28 µM. Moreover, the GI50 was 5.03 µM with OVCAR-4 ovarian, 3.36 µM in the assay with CAKI-1 renal, 4.2 µM in the assay with KM12 colon and 3.13 µM in the assay on LOX IMVI melanoma. The TGI worked out at 14.9 µM in the assay on SF-539 CNS; 12.1 µM in the assay with HL-60(TB) leukemia; 5.91 µM in the assay on SR leukemia; 16.7 µM with 786-0 renal; 5.69 µM in the assay on HOP-92 NSCLC; 20.1 µM in the assay with SK-OV-3 ovarian. Also, the TGI worked out at 46.5 µM with OVCAR-4 ovarian, 15.6 µM in the assay with CAKI-1 renal, 16.2 µM in the assay on KM12 colon and 13.5 µM in the assay on LOX IMVI melanoma.
